Consider 20 compounds from patent publication US20260001893A1, “SMALL MOLECULE MODULATORS OF STAT6” (Gilead Sciences, Inc., priority 2024, published 2026).

Test [1] relates to Eotaxin-3 (CCL26) release in human whole blood stimulated with IL-4. Description: Human whole blood eotaxin-3 assay (IL-4 stimulated eotaxin-3 release). Format: cell-based. As to conditions: human whole blood stimulated with recombinant human IL-4, 48 h, geometric mean; for EC50 / Emax: Homo sapiens, 48 h; for EC50: inhibition of eotaxin-3 release, given for test compounds with >80% Emax. Put shortly: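 Eotaxin-3 (CCL26) release was quantified by MSD immunoassay in supernatants of human heparinised whole blood after 48 h at 37° C with IL-4 ([…] final). Compounds, in 4-fold dilutions at 0.5% DMSO, were added 2 h before stimulation.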

For test [2], the target named is T1, Human STAT6 (truncated, aa122-658, with N-terminal His-tag) (Homo sapiens, UniProt P42226).
T1 construct: Human STAT6 (truncated, aa122-658, with N-terminal His-tag, expressed in insect cells); His-tag (N); made in house; host or cells: insect cells
T1 sequence (P42226 122-658): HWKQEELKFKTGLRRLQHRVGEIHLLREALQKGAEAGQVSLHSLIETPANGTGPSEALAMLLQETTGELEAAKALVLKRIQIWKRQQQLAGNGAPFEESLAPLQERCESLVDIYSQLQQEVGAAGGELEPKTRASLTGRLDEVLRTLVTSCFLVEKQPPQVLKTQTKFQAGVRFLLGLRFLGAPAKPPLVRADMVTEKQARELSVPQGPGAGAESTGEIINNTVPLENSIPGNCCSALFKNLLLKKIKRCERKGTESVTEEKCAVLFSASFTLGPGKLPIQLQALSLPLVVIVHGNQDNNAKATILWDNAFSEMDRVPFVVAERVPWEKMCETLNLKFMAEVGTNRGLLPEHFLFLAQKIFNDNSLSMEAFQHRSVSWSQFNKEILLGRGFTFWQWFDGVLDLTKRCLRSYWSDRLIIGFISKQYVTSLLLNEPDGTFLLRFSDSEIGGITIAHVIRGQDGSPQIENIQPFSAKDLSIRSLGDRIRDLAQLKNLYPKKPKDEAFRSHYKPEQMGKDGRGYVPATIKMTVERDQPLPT
Put plainly: Surface plasmon resonance (SPR) assay, binding to human STAT6. As to conditions: Biacore 8K, 25° C, immobilized human STAT6 on CM5 chip, multi-cycle kinetics; geometric mean. The protocol:
Surface Plasmon Resonance Assay
Biacore instruments from the 8K-series (Cytiva) were used, and measurements were performed at 25° C. Human STAT6 (truncated, aa122-658, with N-terminal His-tag, expressed in insect cells) was immobilized in the active flow cells on a CM5 chip using amine-coupling (default settings) at 10 μg/ml in 10 mM acetate buffer pH 5.5, at a contact time of 120-420 sec. and a flow rate of 10 μl/min. Reference flow cells were deactivated using blank immobilization. PBS-P+(Cytiva) supplemented with 2% DMSO was used as running buffer, and solvent correction was applied. Compounds were tested by multi-cycle kinetics injections using a contact time of 60 sec., dissociation time of up to 300 sec., and a flow rate of 30 μl/min.
Solvent-corrected, reference-subtracted and blank-corrected data was processed and binding isotherms were fitted according to a single report point from each sensorgram (Standard: Late binding (5 sec. before injection end); alternative: Earlier report point according to binding profile). Data fitting was done both with unfixed Rmax and with Rmax fixed to the theoretical value* assuming 1:1 binding to allow processing of data from both weak and strong binders as well as to evaluate binding stoichiometry.
Positive controls were run at the beginning, during, and at the end of the screen to evaluate surface activity.
*Equation for calculation of the theoretical Rmax(Theoretical Rmax=(MW Analyte/MW Ligand)×immobilization level).
Background: SPR reads the build-up and loss of mass on a sensor chip optically.

[3] abbreviates: given for test compounds with <80% Emax.

By EC50 is commonly meant the concentration at which the effect is half-maximal. Usually Kd stands for the equilibrium constant for the complex coming apart. A lower Kd goes with a tighter complex. The term Emax denotes the size of the effect at its maximum, as opposed to the concentration needed.

The structures appear in SMILES notation.

Turning to `CNc1ccn(-c2ccnc3c2cc(CN2CC=C(c4ccc(C(=O)N(C)C)cc4C(F)(F)F)CC2)n3C)c(=O)c1` [Example 1m59, N,N-Dimethyl-4-(1-((1-methyl-4-(4-(methylamino)-2-oxopyridin-1 (2H)-yl)-1H-pyrrolo[2,3-b]pyridin-2-yl)methyl)-1,2,3,6-tetrahydropyridin-4-yl)-3-(trifluoromethyl)benzamide], the EC50 in test [1] amounted to 96.1 nM. The same compound came in with a Kd in test [2] of 14.3 nM.
Take `CN(C)C(=O)c1ccc(C2CCN(Cc3cc4c(-n5ccc6[nH]nc(C(F)(F)F)c6c5=O)ccnc4n3C)C(=O)C2)cc1` (single isomer, unassigned) [Example 1ab1]: the Emax in test [1] (setting [3]) is 30 to 40%. The same compound came in with a Kd in test [2] of 61 nM.
Consider `CNc1ccn(-c2ccnc3c2cc(CN2CC[C@H](c4ccc(C(=O)N(C)C)cc4)[C@@H](F)C2)n3C)c(=O)c1` (single isomer, unassigned) [Example 1f3], for which the EC50 in test [1] was 289 nM. Binding in test [2] was characterised by a dissociation constant (Kd) of 32.5 nM.
For `CNc1ccn(-c2ccnc3c2cc(CN2CCC(c4ccc(C(=O)N(C)C)cc4)CC2=O)n3C)c(=O)c1` (stereo not drawn) [Example 1f8, N,N-Dimethyl-4-[1-[[1-methyl-4-[4-(methylamino)-2-oxo-1-pyridyl]pyrrolo[2,3-b]pyridin-2-yl]methyl]-2-oxo-4-piperidyl]benzamide] the same measures were 957 nM and 134 nM.
For `CN(C)C(=O)c1ccc(C2CCN(Cc3cc4c(-n5ccc6[nH]ncc6c5=O)ccnc4n3C)CC2)cc1` [Example 1j27, N,N-Dimethyl-4-[1-[[1-methyl-4-(4-oxo-1H-pyrazolo[4,3-c]pyridin-5-yl)pyrrolo[2,3-b]pyridin-2-yl]methyl]-4-piperidyl]benzamide] the same measures were 44.7 nM and 9.79 nM.
Regarding `CN(C)C(=O)c1ccc(C2CCN(Cc3cc4c(-n5ccc(N)c(F)c5=O)ccnc4n3C)CC2)cc1` [Example 1d31, 4-[1-[[4-(4-Amino-3-fluoro-2-oxo-1-pyridyl)-1-methyl-pyrrolo[2,3-b]pyridin-2-yl]methyl]-4-piperidyl]-N,N-dimethyl-benzamide], in test [1], the EC50 amounted to 100 nM. In test [2], this compound yielded a Kd of 22.3 nM.
For `CN(C)C(=O)c1ccc(C2CCN(Cc3cc4c(-n5ccc6c(c5=O)CCN6)ccnc4n3C)CC2)cc1` [Example 1d23, N,N-Dimethyl-4-[1-[[1-methyl-4-(4-oxo-2,3-dihydro-1H-pyrrolo[3,2-c]pyridin-5-yl)pyrrolo[2,3-b]pyridin-2-yl]methyl]-4-piperidyl]benzamide], the Emax in test [1] (setting [3]) was in the range of 70 to 80%. In addition, in test [2], the Kd was 21.8 nM.
On to `CNc1ccn(-c2ccnc3c2cc(CN2CCC(c4ccc(C(=O)N(C)C)cc4OC)CC2)n3C)c(=O)c1` [Example 1d36, 3-Methoxy-N,N-dimethyl-4-[1-[[1-methyl-4-[4-(methylamino)-2-oxo-1-pyridyl]pyrrolo[2,3-b]pyridin-2-yl]methyl]-4-piperidyl]benzamide], for which the EC50 in test [1] was found to be 260 nM. The Kd in test [2] is 51.6 nM.
As for `CNc1ccn(-c2ccnc3c2cc(CN2CC=C(c4ccc(C(=O)N(C)C)cc4)CC2)n3C)c(=O)c1` [Example 1m35, N,N-Dimethyl-4-(1-((1-methyl-4-(4-(methylamino)-2-oxopyridin-1 (2H)-yl)-1H-pyrrolo[2,3-b]pyridin-2-yl)methyl)-1,2,3,6-tetrahydropyridin-4-yl)benzamide], the Emax in test [1] (setting [3]) was 40 to 50%. The affinity in test [2], expressed as Kd, was 35 nM.
As to `CN(C)C(=O)c1ccc(C2CCN(Cc3cc4c(-n5ccc(N)c(COC(C)(C)C)c5=O)ccnc4n3C)CC2)cc1` [Example 1d39, 4-[1-[[4-[4-Amino-3-(tert-butoxymethyl)-2-oxo-1-pyridyl]-1-methyl-pyrrolo[2,3-b]pyridin-2-yl]methyl]-4-piperidyl]-N,N-dimethyl-benzamide], the EC50 in test [1] came out at 961 nM. In test [2], this compound returned a Kd of 98.7 nM.
Regarding `CN(C)C(=O)c1ccc(C2CCN(Cc3cc4c(-n5ccc6[nH]nc(C(F)(F)F)c6c5=O)ccnc4n3C)C(=O)C2)cc1` (single isomer, unassigned) [Example 1ab2], the “Eotaxin-3 Emax (%)” value in test [1] (setting [3]) was 50-60%. In test [2], binding was characterised by a dissociation constant (Kd) of 37.6 nM.
Regarding `CNc1ccn(-c2ccnc3c2cc(CN2CC[C@H](c4ccc(C(=O)N(C)C)cc4)C(F)(F)C2)n3C)c(=O)c1` (stereo in doubt) [Example 1f1, N,N-Dimethyl-4-[(4R)-3,3-difluoro-1-[[1-methyl-4-[4-(methylamino)-2-oxo-1-pyridyl]pyrrolo[2,3-b]pyridin-2-yl]methyl]-4-piperidyl]-benzamide], the EC50 in test [1] amounted to 98.5 nM. For the same compound, in test [2], the Kd is 15 nM.
For `CN(C)C(=O)c1ccc(C2CCN(Cc3cc4c(-n5ccc(N)c(Br)c5=O)ccnc4n3C)CC2)cc1` [Example 1d20, 4-[1-[[4-(4-Amino-3-bromo-2-oxo-1-pyridyl)-1-methyl-pyrrolo[2,3-b]pyridin-2-yl]methyl]-4-piperidyl]-N,N-dimethyl-benzamide], in that order: 99.3 nM and 16.1 nM.
Compound `CN(C)C(=O)c1ccc(C2CCN(Cc3cc4c(-n5ccc(NC(C)(C)C)cc5=O)ccnc4n3C)CC2)cc1` [Example 1d9, 4-[1-[[4-[4-(tert-Butylamino)-2-oxo-1-pyridyl]-1-methyl-pyrrolo[2,3-b]pyridin-2-yl]methyl]-4-piperidyl]-N,N-dimethyl-benzamide] displayed a Kd in test [2] of 4970 nM.
`CN(C)C(=O)c1ccc(C2CCN(Cc3cc4c(-n5ccc(NCc6ccc(F)c(F)c6)cc5=O)ccnc4n3C)CC2)cc1` [Example 1d14, 4-[1-[[4-[4-[(3,4-Difluorophenyl)methylamino]-2-oxo-1-pyridyl]-1-methyl-pyrrolo[2,3-b]pyridin-2-yl]methyl]-4-piperidyl]-N,N-dimethyl-benzamide] had a Kd in test [2] of 124 nM.
The same measure, in the same setting: next, `[2H]C([2H])([2H])N(C(=O)c1ccc(N2CCN(Cc3cc4c(-n5ccc(NC)cc5=O)ccnc4n3C)CC2)nc1)C([2H])([2H])[2H]` [Example 1m8, N,N-Bis(methyl-d3)-6-(4-((1-methyl-4-(4-(methylamino)-2-oxopyridin-1 (2H)-yl)-1H-pyrrolo[2,3-b]pyridin-2-yl)methyl)piperazin-1-yl)nicotinamide]: 640 nM; `CCCN(CCC)C(=O)c1ccc(C2CCN(Cc3cc4c(-n5ccc(NC)cc5=O)ccnc4n3C)CC2)cc1` [Example 1d11, N,N-Dipropyl-4-[1-[[1-methyl-4-[4-(methylamino)-2-oxo-1-pyridyl]pyrrolo[2,3-b]pyridin-2-yl]methyl]-4-piperidyl]benzamide]: 38.4 nM; `CN(C)C(=O)c1ccc(C2CC[N+]([O-])(Cc3cc4c(-n5ccc(N)cc5=O)ccnc4n3C)CC2)cc1` (stereo not drawn) [Example 1d32, 4-[1-[[4-(4-Amino-2-oxo-1-pyridyl)-1-methyl-pyrrolo[2,3-b]pyridin-2-yl]methyl]-1-oxido-piperidin-1-ium-4-yl]-N,N-dimethyl-benzamide]: 333 nM.
On the same count and under the same terms, the value for `CN(C)C(=O)c1ccc(C2CC[N+]([O-])(Cc3cc4c(-n5ccc6c(c5=O)CCN6)ccnc4n3C)CC2)cc1` (stereo not drawn) [Example 1d33, N,N-Dimethyl-4-[1-[[1-methyl-4-(4-oxo-2,3-dihydro-1H-pyrrolo[3,2-c]pyridin-5-yl)pyrrolo[2,3-b]pyridin-2-yl]methyl]-1-oxido-piperidin-1-ium-4-yl]benzamide] was 75.1 nM.
Same read-out and setting: next, `CNc1ccn(-c2ccnc3c2cc(CN2CCN(c4ccc(C(=O)N(C)C)cn4)CC2)n3C)c(=O)c1` [Example 1m7, N,N-Dimethyl-6-(4-((1-methyl-4-(4-(methylamino)-2-oxopyridin-1 (2H)-yl)-1H-pyrrolo[2,3-b]pyridin-2-yl)methyl)piperazin-1-yl)nicotinamide]: 735 nM.
